# Where a name gives a salt, the structure may show the parent alone. Read-outs that look alike come from different tables or passages of the source.
# What was measured:
# [1] = target: GST-Syk Full Protein (human) (Homo sapiens, UniProt P43405); test: Syk kinase inhibition test (HTRF method); type: biochemical
# Procedure, shortened: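 Human GST-Syk full-length (6.4 nM) phosphorylated biotin-EDPDYEWPSA-NH2 (250 nM) with 100 μM ATP in HEPES pH 7.0/MgCl2 buffer, 2% DMSO, 30 min at room temperature. EDTA stop, then HTRF detection (streptavidin-XL665, Eu anti-phosphotyrosine) after 1 h; 665/620 ratio read.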
# [2] = system: cultured human mast cells; test: Degranulation inhibition test using cultured human mast cells (IgE cross-linking, β-Hexosaminidase release); type: cell-based; settings: Mast cell, cultured human mast cells, read-out: human degranulation ave. IC50
# Procedure, shortened: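 CD34+ cord-blood cells cultured ≥8 weeks with SCF/IL-6/IL-3; FcεRI primed 5 days with rhIL-4 (1 ng/mL) and hIgE (0.5 μg/mL). Compound (0.1% DMSO) preincubated 10 min at 37 °C, then anti-IgE (final 10 μg/mL) 30 min; released β-hexosaminidase read at 405 nm versus total lysate, IC50 (M).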
# [3] = HTRF, 100 μM ATP, 30 min room temperature, average, read-out: sykHTRF ave IC50
# [4] = anti-hIgE stimulation, β-Hexosaminidase index, average
# [5] = Tables 1-x, compounds A, read-out: sykHTRF ave IC50
# [6] = Tables 2-x, thiophene compounds B, read-out: sykHTRK ave IC50
# [7] = Tables 2-x, thiophene compounds B
smiles,measurement,setting,value
COc1ccc(C[C@H](N)c2ncc(-c3cccc(Nc4cc(C)ccn4)n3)s2)cc1OC [Compound A-138],IC50,[1]; [3],100 to 1000 nM
same,IC50,[2]; [4],> 1000 nM
CC(=O)N[C@@H](CO)c1ncc(-c2cccc(Nc3cc(C)ccn3)n2)s1 [Compound A-59],IC50,[1]; [3],100 to 1000 nM
same,IC50,[2]; [4],100 to 1000 nM
CC(=O)N[C@@H](C)c1nc(CO)c(-c2cccc(Nc3cc(C)ccn3)n2)s1 [Compound A-108],IC50,[1]; [3],> 1000 nM
same,IC50,[2]; [4],> 1000 nM
"Cc1ccnc(Nc2cccc(-c3cnc(N(C)Cc4cccc(C(=O)O)c4)s3)n2)c1 [Compound A-586, 3-[(N-methyl-N-{5-[6-(4-methylpyridin-2-ylamino)pyridin-2-yl]thiazol-2-yl}amino)methyl]benzoic acid dihydrochloride]",IC50,[1]; [5],< 100 nM
same,IC50,"[2]; Tables 1-x, compounds A",> 1000 nM
Cc1ccnc(Nc2cccc(-c3cnc(C(=O)CCC(=O)O)s3)n2)c1 [Compound A-124],IC50,[1]; [3],100 to 1000 nM
same,IC50,[2]; [4],> 1000 nM
CN[C@@H](Cc1ccc(O)cc1)c1ncc(-c2cccc(Nc3cc(C)ccn3)n2)s1 [Compound A-384],IC50,[1]; [5],100 to 1000 nM
same,IC50,"[2]; Tables 1-x, compounds A",100 to 1000 nM
"CC(=O)NC(C)(C)Cc1ncc(-c2cccc(Nc3cc(C)ccn3)n2)s1 [Compound A-334, N-(1,1-dimethyl-2-{5-[6-(4-methylpyridin-2-ylamino)pyridin-2-yl]thiazol-2-yl}ethyl)acetamide]",IC50,[1]; [3],< 100 nM
same,IC50,[2]; [4],< 100 nM
"COC(=O)N1CCN(c2ncc(-c3cccc(Nc4cc(C)ccn4)n3)s2)CC1 [Compound A-438, methyl 4-{5-[6-(4-methylpyridin-2-ylamino)pyridin-2-yl]thiazol-2-yl}piperazine-1-carboxylic acid methyl ester]",IC50,[1]; [5],< 100 nM
same,IC50,"[2]; Tables 1-x, compounds A",100 to 1000 nM
CC(=O)c1ccc(-c2cccc(Nc3cc(C(N)=O)ccn3)n2)s1 [Compound B-65],IC50,[1]; [6],100 to 1000 nM
same,IC50,[2]; [7],> 1000 nM
"COC(=O)[C@H]1CC[C@H](c2ncc(-c3cccc(Nc4cc(C)ccn4)n3)s2)CC1 [Compound A-6, trans-4-{5-[6-(4-methylpyridin-2-ylamino)pyridin-2-yl]thiazol-2-yl}cyclohexanecarboxylic acid methyl ester]",IC50,[1]; [3],100 to 1000 nM
same,IC50,[2]; [4],100 to 1000 nM
CC(=O)c1cc(C)c(-c2cccc(Nc3cc(C)ccn3)n2)s1 [Compound B-6],IC50,[1]; [6],100 to 1000 nM
same,IC50,[2]; [7],100 to 1000 nM
Cc1ccnc(Nc2cccc(-c3sc([C@H](C)NC(=O)CCC(=O)O)nc3C)n2)c1 [Compound A-116],IC50,[1]; [3],> 1000 nM
same,IC50,[2]; [4],> 1000 nM
Cc1ccnc(Nc2cccc(-c3cnc(C4CCCC(C(=O)N5CCC(O)CC5)C4)s3)n2)c1 (stereo not shown) [Compound A-272],IC50,[1]; [3],100 to 1000 nM
same,IC50,[2]; [4],100 to 1000 nM
"C/C(=N\O)c1ccc(-c2cccc(Nc3cc(Cl)ccn3)n2)s1 [Compound B-75, 1-{5-[6-(4-chloropyridin-2-ylamino)pyridin-2-yl]thiophen-2-yl}ethanone oxime]",IC50,[1]; [6],< 100 nM
same,IC50,[2]; [7],100 to 1000 nM
CC(=O)c1ccc(-c2cccc(Nc3nccc(C)c3[N+](=O)[O-])n2)s1 [Compound B-62],IC50,[1]; [6],> 1000 nM
same,IC50,[2]; [7],> 1000 nM
"COc1ccnc(Nc2cccc(-c3ccc(C(C)=O)s3)n2)c1 [Compound B-17, 1-{5-[6-(4-methoxypyridin-2-ylamino)pyridin-2-yl]thiophen-2-yl}ethanone]",IC50,[1]; [6],< 100 nM
same,IC50,[2]; [7],100 to 1000 nM
Cc1ccnc(Nc2cccc(-c3ccc(C(=O)NC(C)(C)CO)s3)n2)c1 [Compound B-72],IC50,[1]; [6],100 to 1000 nM
same,IC50,[2]; [7],100 to 1000 nM
"Cc1ccnc(Nc2cccc(-c3cnc(N4CCC(C(C)C(=O)O)CC4)s3)n2)c1 (stereo not shown) [Compound A-652, 2-(1-{5-[6-(4-methylpyridin-2-ylamino)pyridin-2-yl]thiazol-2-yl}piperidin-4-yl)propionic acid]",IC50,[1]; [5],< 100 nM
same,IC50,"[2]; Tables 1-x, compounds A",< 100 nM
"CN(Cc1ccc(C(=O)O)cc1)c1ncc(-c2cccc(Nc3cc(C4(C)OCCO4)ccn3)n2)s1 [Compound A-596, 4-{[N-methyl-N-(5-{6-[4-(2-methyl-[1,3]dioxolan-2-yl)pyridin-2-ylamino]pyridin-2-yl}thiazol-2-yl)amino]methyl}benzoic acid]",IC50,[1]; [5],< 100 nM
same,IC50,"[2]; Tables 1-x, compounds A",100 to 1000 nM
"Cc1ccnc(Nc2cccc(-c3cnc(N4CCC(C)(CC(=O)O)CC4)s3)n2)c1 [Compound A-613, (4-methyl-1-{5-[6-(4-methylpyridin-2-ylamino)pyridin-2-yl]thiazol-2-yl}piperidin-4-yl)acetic acid dihydrochloride]",IC50,[1]; [5],< 100 nM
same,IC50,"[2]; Tables 1-x, compounds A",100 to 1000 nM
"CNC(=O)C1(C)CCN(c2ncc(-c3cccc(Nc4cc(C)ccn4)n3)s2)CC1 [Compound A-501, N-methyl-4-methyl-1-{5-[6-(4-methylpyridin-2-ylamino)pyridin-2-yl]thiazol-2-yl}piperidine-4-carboxamide]",IC50,[1]; [5],< 100 nM
same,IC50,"[2]; Tables 1-x, compounds A",100 to 1000 nM
Cc1ccnc(Nc2cccc(-c3cnc([C@H](N)c4ccc(OCc5ccccc5)cc4)s3)n2)c1 [Compound A-150],IC50,[1]; [3],100 to 1000 nM
same,IC50,[2]; [4],> 1000 nM
"Cc1ccnc(Nc2cccc(-c3cnc(N4CCC(CCC(=O)O)CC4)s3)n2)c1 [Compound A-17, 3-(1-{5-[6-(4-methyl-pyridin-2-ylamino)pyridin-2-yl]thiazol-2-yl}piperidin-4-yl)propionic acid]",IC50,[1]; [3],< 100 nM
same,IC50,[2]; [4],100 to 1000 nM
CC(=O)O/N=C(\C)c1ccc(-c2cccc(Nc3cc(C)ccn3)n2)s1 [Compound B-86],IC50,[1]; [6],100 to 1000 nM
same,IC50,[2]; [7],100 to 1000 nM
"Cc1ccnc(Nc2cccc(-c3cnc(C4CCC(c5nnn[nH]5)CC4)s3)n2)c1 (stereo not shown) [Compound A-326, N-(4-methylpyridin-2-yl)-N-(6-{2-[4-(1H-tetrazol-5-yl)cyclohexyl]thiazol-5-yl}pyridin-2-yl)amine]",IC50,[1]; [3],< 100 nM
same,IC50,[2]; [4],100 to 1000 nM
"Cc1ccnc(Nc2cccc(-c3cnc(N4CCC[C@@H](CC(=O)O)C4)s3)n2)c1 [Compound A-567, ((S)-1-{5-[6-(4-methylpyridin-2-ylamino)pyridin-2-yl]thiazol-2-yl}piperidin-3-yl)acetic acid]",IC50,[1]; [5],< 100 nM
same,IC50,"[2]; Tables 1-x, compounds A",100 to 1000 nM
"Cc1ccnc(Nc2cccc(-c3cnc(C4CCN(C(=O)CC(=O)O)CC4)s3)n2)c1 [Compound A-192, 3-(4-{5-[6-(4-methylpyridin-2-ylamino)pyridin-2-yl]thiazol-2-yl}piperidin-1-yl)-3-oxopropionic acid hydrochloride]",IC50,[1]; [3],< 100 nM
same,IC50,[2]; [4],> 1000 nM
Cc1ccnc(Nc2cccc(-c3cnc([C@H](C)NC(=O)[C@H](C)O)s3)n2)c1 [Compound A-32],IC50,[1]; [3],100 to 1000 nM
same,IC50,[2]; [4],100 to 1000 nM
CC(=O)N1C[C@H](O)C[C@H]1c1ncc(-c2cccc(Nc3cc(C)ccn3)n2)s1 [Compound A-95],IC50,[1]; [3],100 to 1000 nM
same,IC50,[2]; [4],> 1000 nM
COC(=O)CCCCc1ncc(-c2cccc(Nc3cc(C)ccn3)n2)s1 [Compound A-68],IC50,[1]; [3],100 to 1000 nM
same,IC50,[2]; [4],> 1000 nM
CC(=O)NCC(=O)N[C@@H](C)c1ncc(-c2cccc(Nc3cc(C)ccn3)n2)s1 [Compound A-355],IC50,[1]; [3],100 to 1000 nM
same,IC50,[2]; [4],> 1000 nM
CC(=O)OCC(=O)N[C@@H](C)c1ncc(-c2cccc(Nc3cc(C)ccn3)n2)s1 [Compound A-146],IC50,[1]; [3],100 to 1000 nM
same,IC50,[2]; [4],100 to 1000 nM
CC(=O)NCCCCCc1ncc(-c2cccc(Nc3cc(C)ccn3)n2)s1 [Compound A-129],IC50,[1]; [3],100 to 1000 nM
same,IC50,[2]; [4],> 1000 nM
CC(=O)NCCc1ncc(-c2cccc(Nc3cc(C)ccn3)n2)s1 [Compound A-256],IC50,[1]; [3],100 to 1000 nM
same,IC50,[2]; [4],100 to 1000 nM
Cc1ccnc(Nc2cccc(-c3cnc([C@H](COCc4ccccc4)NC(=O)OC(C)(C)C)s3)n2)c1 [Compound A-43],IC50,[1]; [3],> 1000 nM
same,IC50,[2]; [4],> 1000 nM
